# Marks after values point to notes of the source that are not given here.
# Key:
# [1] = Solubility of SCAI-Form and API at pH 1 and pH 2; type: physicochemical; conditions: for Dissolution concentration at pH 1: stirred 15 minutes at 5 mg/mL, diluted 10 times with DW, measured value x 10; for Dissolution concentration at pH 1 / Dissolution concentration at pH 2: filtered; for Dissolution concentration at pH 2: stirred 15 minutes at 1 mg/mL
# Procedure: Method for measuring solubility at pH 1: Stirred for 15 minutes at a concentration of 5 mg/mL, and then filtered, diluted 10 times with DW, and analyzed. (The value calculated as [measured value×10] is described in the results)
# Method for measuring solubility at pH 2: Stirred for 15 minutes at a concentration of 1 mg/mL, and then filtered, and analyzed.
# [2] = system: grade 3/4 CNV lesions; test: Laser-induced CNV monkey model, optical coherence tomography (OCT): retinal thickness; type: in vivo, rhesus monkeys; conditions: n = 6 eyes; for Percent change of retinal thickness (Mean±SD): relative to (baseline − before laser induction), Example 15 (0.08%) eye drops
# Description: (§1) In this experiment, neovascularization was induced by damaging the choroid of both eyes using a laser in a monkey animal model, and then treated with drugs, and the efficacy is compared and evaluated by performing fundus fluorescein angiography (FFA) and optical coherence tomography (OCT) and measuring the neovascular area and spot number in the damaged area and the retinal lesion thickness.
# (§2) Experimental CNV in monkey eyes was induced using a laser photocoagulation system (Vitra 532 nm, Quantel Medical, France).
# (§3) Laser parameters: laser wavelength of 532 nm; spot size of 50 μm; energy of 600-800 mW; exposure time of 0.1 s.
# (§4) A total of eight rhesus monkeys were used to induce CNV. The animals were anesthetized by intramuscular injection of ketamine hydrochloride (20 mg/kg) and dexmedetomidine hydrochloride (0.03 mg/kg), and then both eyes of each monkey were burned at 8-9 points around the macula, approximately one disc diameter from the macula. Care was taken not to aim the laser at the macula. The force used depended on the morphology of the subretinal bleb indicating a perforation of the Bruch's membrane. If no bled formed, higher energy was used at the next point. Color fundus photography (Retinal Camera TRC-50DX, Topcon Healthcare, Japan) was performed immediately after laser photocoagulation to observe the laser dots. Fundus fluorescein angiography (FFA) examination was performed 12 days after laser induction. Modeling was assessed as successful if there was one or more fluorescence leakage point of grade III and/or grade IV. Animals were enrolled in treatment and randomly divided into two groups based on the total leakage area of grade III and IV laser spots (Tables 10 and 11). The monkeys that were not included were returned to the PRIMED Animal Care Department.
# Optical coherence tomography (OCT): Heidelberg Spectralis OCT plus.
# (§5) Frequency: a total of 4 times, 1 time before laser photocoagulation, 1 time before administration (−Day 2), 1 time on Day 14 and 1 time on Day 28 after the first administration.
# OCT image acquisition protocol: FP and FFA images were taken, and then OCT scans were performed. Efforts were made to maintain uniformly illuminated and well-focused fundus images and high-quality OCT. Once the focus was aligned on the central macula by observation of the monitor screen, the monkey's eyes were identified by applying a high-speed macular scan process. Retinal thickness was automatically measured using software embedded in the Heidelberg OCT by measuring the distance between the internal border membrane and Bruch's membrane. Two membrane lines were found manually. The location with the maximum thickness around the grade III or IV point was selected for measurements. Heidelberg OCT unique has technical characteristics that ensure longitudinal measurements of retinal thickness at the same location.
# (§6) Data analysis consisted of total area of fluorescein leakage points at one of the registered photocoagulation points, volume of fluorescein leakage points, and retinal thickness. Animal observations, photography, fundus and slit-lamp examinations were recorded and summarized in a report. The mean and standard deviation of the percent change in the total area of fluorescein leakage spots and the percent change in retinal thickness were calculated. Microsoft Office Excel 2013 and SPSS Statistics 13.0 were used for data processing and statistical analysis.
# [3] = system: grade 3/4 CNV lesions; test: Laser-induced CNV monkey model, fundus fluorescein angiography (FFA): leakage area and spot number; type: in vivo, rhesus monkeys; conditions: n = 6 eyes
# Description: as §1, §2, §3, §4, §5
# FFA image acquisition protocol: The FP images were taken, and then FFA was performed. After intravenous infusion of 10% sodium fluorescein (Alcon Laboratories, USA) at a dose of 0.075 mL/kg, rapid posterior polar photographs of the right eye were taken. The left eye was then used to monitor leakage of fluorescein related to the CNV lesion at serial time points (1, 5, and 10 minutes).
# To quantify the area of CNV leakage, the total area of hyperfluorescence per eye was measured in late FFA images using Image J software (version 1.52a, Wayne Rasband National Institutes of Health, USA). Images from the later stage (10 min) were also used to calculate the amount and grade of CNV spots (Table 12).
# as §6
# [4] = Baseline (after induction, before treatment), group later given Example 15 eye drops
# [5] = Day 14, Example 15 (0.08%) eye drops 4 times/day
Compound,"Solubility of SCAI-Form relative to API ([1]; from Table 6, pH 1 and pH 2)",Dissolution concentration at pH 1 ([1]; listed as SCAI-Form) [mg/mL],Dissolution concentration at pH 2 ([1]; listed as SCAI-Form) [mg/mL],"Average retinal thickness of grade 3/4 CNV lesions (Mean±SD) [2, 4] [μm]","Average retinal thickness of grade 3/4 CNV lesions (Mean±SD) [2, 5] [μm]",Percent change of retinal thickness (Mean±SD) ([2]; Day 14) [%],"Average retinal thickness of grade 3/4 CNV lesions (Mean±SD) ([2]; Day 28, Example 15 (0.08%) eye drops 4 times/day, p < 0.01 vs baseline) [μm]","Percent change of retinal thickness (Mean±SD) ([2]; Day 28, p < 0.01 vs vehicle) [%]","Leakage area of grade 3/4 CNV lesions (Mean±SD) [3, 4] [mm^2]","Amount of grade 3/4 leakage spots [3, 5]","Leakage area of grade 3/4 CNV lesions (Mean±SD) ([3]; Day 14, Example 15 (0.08%) ophthalmic solution, 1 drop 50 μL, 4 times/day topical) [mm^2]","Percent change of leakage area (Mean±SD) ([3]; Day 14 vs baseline, Example 15 (0.08%) eye drops 4 times/day) [%]","Amount of grade 3/4 leakage spots ([3]; Day 28, Example 15 (0.08%) eye drops 4 times/day)","Leakage area of grade 3/4 CNV lesions (Mean±SD) ([3]; Day 28, Example 15 (0.08%) ophthalmic solution, 1 drop 50 μL, 4 times/day topical, p < 0.05 vs baseline)","Percent change of leakage area (Mean±SD) ([3]; Day 28 vs baseline, Example 15 (0.08%) eye drops 4 times/day, p < 0.05 vs vehicle) [%]","Amount of grade 3/4 leakage spots ([3]; baseline, group later given Example 15 eye drops)",Dissolution concentration at pH 1 [1] [mg/mL],Dissolution concentration at pH 2 [1] [mg/mL]
"CNC(=O)c1ccccc1Sc1ccc2c(/C=C/c3ccccn3)n[nH]c2c1 [SCAI-005, axitinib]",about twice,4.363,0.171,430 ± 45,406 ± 68,−26.0 ± 26.3,358 ± 40,−61.4 ± 16.0,9.01 ± 2.25,47*,9.65 ± 4.85,4.5 ± 39.1,43*,6.46 ± 3.30* mm^2,−30.2 ± 28.9,53,,
"CNC(=O)c1ccccc1Sc1ccc2c(/C=C/c3ccccn3)n[nH]c2c1 [API, axitinib]",,,,,,,,,,,,,,,,,2.661,0.073
